In ChEMBL document CHEMBL3430912, “GSK Tres Cantos Anti-Kinetoplastid Screening (TCAKS) Data”:

Tests used:
[1] = system: Trypanosoma cruzi; test: GSK_TCAKS: pIC50 Trypanosoma cruzi viability assay using beta-GAL activity. This assay was run at single shot at 5uM compound concentration per well. The biological reagents consisted of NIH-3T3 host cells and trypomastigotes parasitic cells; both cell types were set to a 3.3 * 10^5 cells/mL dilution in assay DMEM by means of a CASY cell counter device using a 60um capillary. 6 uL of the mixture were dispensed per well (about 1 * 10^3 host-cells and 1 * 10^3 parasites) with a Multidrop Combi dispenser. […] In all wells, the percentage of DMSO never exceeded 0.5%. Plates incubated for four days at 37C, 5% CO2. The substrate used for the assay fluorescence intensity (FLINT) readout was resorufin-beta-D-galactopiranoside (Sigma-Aldrich) at 5uM per well. It was diluted in PBS supplemented with the soft detergent Igepal (Fluka).; format: functional, organism-based, Mus musculus; settings: Tulahuen, NIH3T3
[2] = system: Trypanosoma cruzi; test: (§1) GSK_TCAKS: pIC50 Trypanosoma cruzi Imaging: Infected Cells. […] Cells were then washed once with PBS before infection. T. cruzi trypomastigotes, collected at days 5 to 8 after infection from LLC-MK2 parasite infected cultures, were allowed to swim out for 4h at 37C from a centrifuged pellet (2,500 rpm/10 min/room temperature). Trypomastigotes were then collected and counted in a CASY Cell Counter. Trypomastigotes, in supplemented DMEM, were added to H9c2 cultures in a multiplicity of infection of 1 and incubated for 18 h. Cells were washed once with PBS before incubation of the infected H9c2 monolayer with trypsin (Life-Technologies) to detach cells from the flask. Cells were counted in a CASY Cell Counter using a 150 um capillary and their density set at 5 * 10^4 cells per mL in supplemented assay DMEM. Infected H9c2 were dispensed into 384-well poly-lysine coated assay plates at 50uL per well using a Multidrop Combi dispenser. After seeding them, the plates were incubated at 37C, 5% CO2 for 72h. Cultures were then fixed and stained by addition of 50 uL of a solution containing 8% formaldehyde and 4 uM DRAQ5 DNA dye (BioStatus, UK) per well. […] Five images were collected per well for reliable statistical analysis. Automated image analysis was performed with a script developed on Acapella High Content Imaging and Analysis Software (PerkinElmer). Output: percentage of infected cells per well as a second infection marker.; format: functional, organism-based, Rattus norvegicus; settings: H9c2, 4 h
[3] = system: Trypanosoma cruzi; test: GSK_TCAKS: pIC50 Trypanosoma cruzi Imaging: Amastigotes/Cell. […] Cells were then washed once with PBS before infection. T. cruzi trypomastigotes, collected at days 5 to 8 after infection from LLC-MK2 parasite infected cultures, were allowed to swim out for 4h at 37C from a centrifuged pellet (2,500 rpm/10 min/room temperature). Trypomastigotes were then collected and counted in a CASY Cell Counter. Trypomastigotes, in supplemented DMEM, were added to H9c2 cultures in a multiplicity of infection of 1 and incubated for 18 h. Cells were washed once with PBS before incubation of the infected H9c2 monolayer with trypsin (Life-Technologies) to detach cells from the flask. Cells were counted in a CASY Cell Counter using a 150 um capillary and their density set at 5 * 10^4 cells per mL in supplemented assay DMEM. Infected H9c2 were dispensed into 384-well poly-lysine coated assay plates at 50uL per well using a Multidrop Combi dispenser. After seeding them, the plates were incubated at 37C, 5% CO2 for 72h. Cultures were then fixed and stained by addition of 50 uL of a solution containing 8% formaldehyde and 4 uM DRAQ5 DNA dye (BioStatus, UK) per well. […] Five images were collected per well for reliable statistical analysis. Automated image analysis was performed with a script developed on Acapella High Content Imaging and Analysis Software (PerkinElmer). Output: number of amastigotes per cell as infection level measurement.; format: functional, organism-based, Rattus norvegicus; settings: H9c2, 4 h
[4] = system: Trypanosoma cruzi; test: as §1, with “H2C9” for “Trypanosoma cruzi”, “H9c2 Host Cardiomyocytes.” for “Infected Cells.”, “Number” for “percentage”, “H9c2 Host Cardiomyocytes nuclei to determine drug-related cytotoxicity.” for “infected cells per well as a second infection marker.”; format: functional, organism-based, Rattus norvegicus; settings: H9c2, 4 h
[5] = system: Leishmania donovani; test: GSK_TCAKS: pIC50 Leishmania donovani viability assay using fluorescence intensity. Assay plates (1536-well) were prepared by adding 30nL per well of compound. For single shot assay, the final compound concentration was 5uM. […] Briefly, eGFP LdBOB axenic amastigotes were harvested, fixed and counted in a CASY cell counter (Roche-Applied Science). A final concentration of 1.5 * 10^5 cells per well were prepared in amastigote media containing 500 U/mL penicillin/streptomycin (Invitrogen) and 6uL was dispensed to each experimental well using a Multidrop Combi dispenser (Thermo Scientific). 6uL of assay media was dispensed to control columns used as reference for 100% compound response. Following incubation for 72 h at 37C, 5% CO2, 2 uL of resazurin was added to each well at a final concentration of 0.5 mM in phosphate buffered saline (PBS) with IGEPAL (Sigma-Aldrich), 0.05% (v/v).; format: functional, organism-based
[6] = system: Leishmania donovani; test: (§2) GSK_TCAKS: pIC50 Leishmania donovani Imaging: Infected Macrophages. Assay plates (384-well) were prepared by adding 250nL of compound to each well. For single shot assay, the final compound concentration was 5 uM. […] Automated image analysis was performed with a script developed on Acapella High Content Imaging and Analysis Software (PerkinElmer). Output: Percent of infected macrophage cells were reported for each well.; format: functional, organism-based, Homo sapiens; settings: THP-1
[7] = system: Leishmania donovani; test: as §2, with “Amastigotes/Macrophages.” for “Infected Macrophages.”, “Average number” for “Percent”, “amastigotes per” for “infected”, “cell” for “cells”; format: functional, organism-based, Homo sapiens; settings: THP-1
[8] = system: Leishmania donovani; test: as §2, with “THP-1 Host” for “Infected”, “THP-1 cell count” for “Percent of infected macrophage cells”; format: functional, organism-based, Homo sapiens
[9] = system: Trypanosoma brucei brucei; test: GSK_TCAKS: pIC50 Trypanosoma brucei viability assay using fluorescence intensity. Assay plates (1536-well) were prepared by dispensing 25nL of compound solution per well using an Echo acoustic dispenser (Labcyte).; format: functional, organism-based; settings: Lister 427, 2 h
[10] = system: Trypanosoma brucei brucei; test: GSK_TCAKS: pIC50 Trypanosoma brucei viability assay using luminiscence. Assay plates (1536-well) were prepared. T. brucei cultures were harvested and counted in a CASY cell counter. A parasite suspension was prepared at a final concentration of 5 * 10^4 cells/mL in complete HMI9 medium and 6uL was dispensed to all wells containing compounds using a Multidrop Combi dispenser. 6uL of HMI9 media with 0.4% DMSO were dispensed to control columns. Plates were incubated for 24 h at 37C, 5% CO2 then tempered for 10 min at room temperature. ATP content was quantified by adding 4 uL of CellTiter-Glo Reagent (Promega) according to the manufacturer's instructions. Luminescence was measured using a ViewLux.; format: functional, organism-based; settings: Lister 427, CASY
[11] = GSK_TCAKS: pIC50 HepG2 human cell line viability assay using luminiscence. […] Seeding density was checked to ensure that new mono-layers were not more than 50% confluent at the time of harvesting. Cell suspension was added to 500 mL of the same medium at a final density of 1.2 * 10^5 cells/mL. This cell suspension was dispensed (25 uL, 3000 cells per well) into 384-well clear-bottom plates using a Multidrop Combi dispenser. Prior to addition of the cell suspension, the screening compounds (250 nL) were pre-dispensed into the plates with an Echo liquid handler. Plates were incubated for 48 h at 37C, 5% CO2. After incubation, plates equilibrated at room temperature for 30 min before proceeding to develop the luminescent signal. The signal developer, CellTiter-Glo Reagent, was allowed to equilibrate at room temperature for 30 min and added to the plates (25uL per well) using a Multidrop Combi dispenser. Plates were left for 10 min at room temperature for stabilization and then read using a ViewLux.; format: toxicity, cell-based
[12] = biological target: Sterol 14-alpha demethylase (Trypanosoma cruzi (strain CL Brener), UniProt Q7Z1V1); test: GSK_TCAKS: pIC50 CYP51 from Trypanosoma cruzi.; format: functional
Sterol 14-alpha demethylase, sequence (Q7Z1V1 whole entry): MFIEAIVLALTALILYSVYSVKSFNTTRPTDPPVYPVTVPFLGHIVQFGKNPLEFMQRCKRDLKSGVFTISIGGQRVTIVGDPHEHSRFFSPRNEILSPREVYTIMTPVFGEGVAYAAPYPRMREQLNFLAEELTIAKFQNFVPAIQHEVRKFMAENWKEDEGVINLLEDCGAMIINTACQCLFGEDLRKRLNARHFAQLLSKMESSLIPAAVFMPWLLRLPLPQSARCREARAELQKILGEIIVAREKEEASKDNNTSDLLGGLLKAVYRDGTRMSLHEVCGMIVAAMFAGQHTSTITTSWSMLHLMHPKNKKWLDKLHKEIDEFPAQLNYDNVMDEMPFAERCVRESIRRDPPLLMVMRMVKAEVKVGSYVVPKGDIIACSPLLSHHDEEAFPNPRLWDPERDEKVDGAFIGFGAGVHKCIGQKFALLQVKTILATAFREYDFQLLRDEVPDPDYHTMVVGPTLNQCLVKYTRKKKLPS

Structure (SMILES) | IC50 [1] [µM] | IC50 [2] [µM] | IC50 [3] [µM] | IC50 [4] [µM] | IC50 [5] [µM] | IC50 [6] [µM] | IC50 [7] [µM] | IC50 [8] [µM] | IC50 [9] [µM] | IC50 [10] [µM] | IC50 at 48 h [11] [µM] | IC50 [12] [µM]
c1ccc(-c2nc(NCc3ccco3)c3ccccc3n2)nc1 | 6.31 | 3.16 | 3.98 | 2 | 3.16 | 2.51 | 2.51 | 31.6 | > 39.8 | 6.31 | > 100 | > 100
Cc1cc(C)n(-c2nc(NC(C)C)nc(NC(C)(C)C)n2)n1 | 2.24 | 1.58 | 0.501 | 0.2 | 3.16 | 5.01 | 3.98 | 6.31 | 20 | 12.6 | > 100 | > 100
COc1ccc(C2CC(c3ccc(NS(C)(=O)=O)cc3)=NN2C(=O)c2cccs2)cc1OC (stereo unspecified) | 25.1 | 31.6 | 15.8 | > 50.1 | 12.6 | 5.01 | 3.98 | > 50.1 | 15.8 | 25.1 | > 100 | 12.6
COc1ccccc1C1CC(c2ccc(NS(C)(=O)=O)cc2)=NN1C(=O)c1cccs1 (stereo unspecified) | 25.1 | > 50.1 | > 50.1 | > 50.1 | 3.98 | 3.98 | 2.51 | > 50.1 | 15.8 | 20 | > 100 | 25.1
CCS(=O)(=O)Nc1ccc(C2=NN(C(=O)c3cccs3)C(c3ccccc3OC)C2)cc1 (stereo unspecified) | 7.94 | > 50.1 | > 50.1 | > 50.1 | 1.26 | 7.94 | 7.94 | > 50.1 | 5.01 | 15.8 | > 100 | 25.1
CCOc1ccc(CN(C)Cc2nc(Nc3ccc(C)cc3)[nH]c(=N)n2)cc1 | 6.31 | 5.01 | 5.01 | 3.16 | 31.6 | 3.98 | 3.16 | 39.8 | 2.51 | 2 | 31.6 | 15.8
CCC(CC)C(=O)Nc1cccc(C(=O)Nc2nnc(C3CCCCC3)s2)c1 | 10 | 25.1 | 15.8 | > 50.1 | > 50.1 | > 50.1 | > 50.1 | > 50.1 | 0.251 | 0.631 | > 100 | > 100
CCN(CC)c1nc(N(C)C)nc2c1CN(Cc1ccccc1)CC2 | 6.31 | 20 | 3.98 | > 50.1 | 7.94 | 6.31 | 3.98 | 39.8 | 20 | 20 | 63.1 | 10
